Assay [1] concerns wt-PPARγ-transfected D9 cells. As to the kind of experiment: Annexin V / cell number in wt-PPARγ-transfected D9 cells. It counts as cell-based. On the procedure:
Annexin V staining. Cells were washed in phosphate-buffered saline (PBS) and resuspended in 100 μl of binding buffer containing Annexin V (Roche Diagnostic Corporation, Indianapolis, Ind.). Cells were analyzed by flow cytometry after the addition of propidium iodide (PI). Annexin V binds to those cells that express phosphatidylserine on the outer layer of the cell membrane, and PI stains the cellular DNA of those cells with a compromised cell membrane. This allows for live cells (unstained with either fluorochrome) to be discriminated from apoptotic cells (stained only with annexin V) and necrotic cells (stained with both annexin and PI).
(§1) To characterize the correlation between PPARγ and caspase activation, caspase-3 levels in D9 cells transfected with wt-PPARγ were analyzed. Six different single cell-derived clones were treated with 3 μM CDDO or vehicle controls for 5 hrs. Caspase-3 cleavage was analyzed by Western blot. A decrease in pro-caspase-3 with appearance of the cleaved product was readily observed in all clones. The degree of cleavage was higher in PPARγ-transfected than in vector control cells that express endogenous PPARγ. […] These changes correlated with plasma membrane changes: vector control=47.0% annexin V-positive cells; wt-PPARγ-transfected cells=73.3±1.1% annexin V (+), n=6. […] PPARγ-transfected cells were also more sensitive to PPARγ-ligand 15d-PGJ2 (41.00% vs 16.0% annexin (+) cells at 3 μM).
as §1, with “(41.0%” for “(41.00%”
The sensitivity of leukemic cells that overexpress PPARγ to CDDO-induced killing was tested. Vector control (pcDNA) or wt-PPARγ-transfected D9 cells (2 different clones) were treated 0.2 μM of CDDO for 48 hrs. Cell viability was assessed by cell count after Trypan blue exclusion, and apoptosis determined by PS/annexin V/Propidium Iodide (PI) flow cytometry. Leukemic cells transfected with PPARγ expressed 2.8-3.7-fold higher amounts of protein compared with vector controls. […] Importantly, CDDO increased PPARγ expression in both, vector control and transfected cells. […]

For assay [2], the system named is ERK1/2 in U937 cells. As to the kind of experiment: ERK1/2 phosphorylation, Western blot. It counts as cell-based, human. Conditions: 1 μM, 3 hours. Here is the method: Western blot analysis. An equal amount of protein lysate was placed on 12% SDS-PAGE for 2 hours at 100 volts, followed by transfer of the protein to a Nytran membrane (S&S, Heween, N.H.) and immunoblotting. Polyclonal rabbit antibodies to Bcl-2, Bcl-XL, and Bax were kindly provided by Dr. J. C. Reed. Antibodies against PARP was obtained from PharMingen (San Diego, Calif.), DFF-45 from Oncogene (Cambridge, Mass.), XIAP from Transduction Laboratories (Lexington, Ky.), caspase-3 from PharMingen, phospho-specific anti-pERK1/2 antibodies from Calbiochem (San Diego, Calif.). A specific antibody recognizing only the p20-processed caspase-3 band was provided by Idun Pharmaceutical, Inc. (La Jolla, Calif.).
Since PKC-α and the MAP kinases ERK1 (p44) and ERK2 (p42) have been identified as physiologic Bcl-2 kinases, studies were performed to assess their activation status. […] However, both ERK1 and ERK2 were prominently detected in the mitochondrial membranes. […] Treatment of K562 cells with 1 μM of CDDO-Me in vivo abrogated ERK kinase activity similar to specific MEK inhibitor […]. No effect on Akt activity was seen. These findings indicate that CDDO-Me induces apoptosis by inhibition of ERK1/2 and Bcl-2 phosphorylation.

Where only a bound is given, the exact number is not on record here.

In the case of `CC1(C)CCC2(C(=O)O)CCC3(C)C(C(=O)C=C4C5(C)C=C(C#N)C(=O)C(C)(C)C5CCC43C)C2C1` (stereo not shown) [CDDO, 2-cyano-3,12-dioxoolen-1,9-dien-28-oic acid], the “annexin V (+) cells” value in assay [1] (3 μM (CDDO: 5 hrs, n=6)) is reported as 73.3±1.1%. Further, the “cell number decreased by” value in assay [1] (3 μM CDDO) came out at 48.8±12.4%. In assay [1] (all six single cell-derived subclones, 0.2 μM CDDO, 48 hrs), the “higher sensitivity compared to vector-control cells” value is greater than 50%.

`COC(=O)[C@]12CCC(C)(C)C[C@H]1[C@H]1C(=O)C=C3[C@@]4(C)C=C(C#N)C(=O)C(C)(C)[C@@H]4CC[C@@]3(C)[C@]1(C)CC2` [CDDO-Me]: the “activation of ERK1/2 (ERK1/2 phosphorylation)” value in assay [2] is listed as “blocked the activation of ERK1/2”.

(Values after patent US7795305B2, “CDDO-compounds and combination therapies thereof” (Board of Regents, The University of Texas System, priority 2000, dated 2010).)
